Laboratory results as given in US9376470B2, “Polypeptide having angiogenesis-inducing activity and antibacterial activity, and use thereof for medical purposes” (FunPep Inc., priority 2008, dated 2016).
Peptide text beside a SMILES is read from it.

What was measured:
Format in all cases: cell-based
[1] = test system: Pseudomonas aeruginosa ATCC27853; assay: Antibacterial activity, ATP assay (BacTiter-Glo); details: Table 4-1; ATP assay concentration: peptides 10, TOB 1.0, CPFX 1.0, OX 0.5, MEPM 1.0 μg/ml
Procedure: (§1) The antibacterial activity of the polypeptides was measured using an ATP assay method. That is, using BacTiter-Glo Microbial Cell Viability Assay kit available from PROMEGA, the antibacterial activity of the peptides was evaluated from the viability of bacteria. […] With respect to the strains, Staphylococcus aureus ATCC29213 (S. aureus ATCC29213) as Gram-positive bacteria, or, alternatively, Pseudomonas aeruginosa (P. aeruginosa ATCC27853) as Gram-negative bacteria, was used. The bacteria were cultured in media for 3 to 4 hours, and thereafter absorbances at A600 were measured. Bacterial suspensions were diluted with Mueller-Hinton broth (MHB) according to McFarland #0.5. Each strain was added so as to attain about 0.5−1×10^5 CFU/mL (final concentration) in terms of Escherichia coli. […] A solution to which the peptides were not added was considered as a negative control, and a solution to which tobramycin (TOB) was added was considered as a positive control. […] Relative values were calculated by comparison with the negative control, and these values were regarded as the viability. ATP (%) of the antibacterial activity was measured in the same manner as mentioned above, and the “minimum inhibitory concentration (MIC)” was measured as follows. MIC is the lowest concentration of an agent that may inhibit the growth of a bacterium. MIC is used as a parameter for the efficacy of an antibacterial agent, for the strength of bacterial sensitivity, or the like. The bacteria can grow (proliferate) when the concentration is not higher than MIC, and cannot grow when the concentration is higher than MIC. Its measurement is carried out according to a method defined as a standard method by Japanese Society of Chemotherapy or CLINICAL AND LABORATORY […] (CLSI), but, in this Example, its measurement was carried out by a broth microdilution method in accordance with “M100-S17/M7-A7” (Performance Standards for Antimicrobial Susceptibility Testing; Seventeenth Informational Supplement, Vol. 27 No. 1) published by CLSI on January, 2007. That is, sensitivity test of agents was carried out using a microtiter plate or test tubes. With respect to each strain, Escherichia coli: ATCC 25922 (Escherichia coli ATCC 25922), Pseudomonas aeruginosa: ATCC 27853 (Pseudomonas aeruginosa ATCC 27853), Staphylococcus aureus: ATCC29213 (Staphylococcus aureus ATCC29213), Klebsiella pneumoniae: JCM 1662 (Klebsiella pneumoniae JCM 1662), enterobacteria (1): JCM 1232 (Enterobacter cloacae JCM 1232), enterobacteria (2): JCM 1235 (Enterobacter aerogenes JCM 1235), and Staphylococcus epidermidis: JCM 2414 (Staphylococcus epidermidis JCM 2414), were used. […] As the concentrations of the agents in ATP assay, the concentrations as described in the Tables were used.

[2] = test system: Klebsiella pneumoniae JCM 1662; assay: Antibacterial activity, ATP assay (BacTiter-Glo); details: ATP assay concentration: peptides 10, TOB 4.0, CPFX 1.0, OX 0.5, MEPM 8.0 μg/ml
Procedure: (§2) That is, using BacTiter-Glo Microbial Cell Viability Assay kit available from PROMEGA, the antibacterial activity of the peptides was evaluated from the viability of bacteria. […] With respect to the strains, Staphylococcus aureus ATCC29213 (S. aureus ATCC29213) as Gram-positive bacteria, or, alternatively, Pseudomonas aeruginosa (P. aeruginosa ATCC27853) as Gram-negative bacteria, was used. The bacteria were cultured in media for 3 to 4 hours, and thereafter absorbances at A600 were measured. Bacterial suspensions were diluted with Mueller-Hinton broth (MHB) according to McFarland #0.5. Each strain was added so as to attain about 0.5−1×10^5 CFU/mL (final concentration) in terms of Escherichia coli. […] A solution to which the peptides were not added was considered as a negative control, and a solution to which tobramycin (TOB) was added was considered as a positive control. […] Relative values were calculated by comparison with the negative control, and these values were regarded as the viability. […] ATP (%) of the antibacterial activity was measured in the same manner as mentioned above, and the “minimum inhibitory concentration (MIC)” was measured as follows. MIC is the lowest concentration of an agent that may inhibit the growth of a bacterium. MIC is used as a parameter for the efficacy of an antibacterial agent, for the strength of bacterial sensitivity, or the like. The bacteria can grow (proliferate) when the concentration is not higher than MIC, and cannot grow when the concentration is higher than MIC. Its measurement is carried out according to a method defined as a standard method by Japanese Society of Chemotherapy or CLINICAL AND LABORATORY […] (CLSI), but, in this Example, its measurement was carried out by a broth microdilution method in accordance with “M100-S17/M7-A7” (Performance Standards for Antimicrobial Susceptibility Testing; Seventeenth Informational Supplement, Vol. 27 No. 1) published by CLSI on January, 2007. That is, sensitivity test of agents was carried out using a microtiter plate or test tubes. With respect to each strain, Escherichia coli: ATCC 25922 (Escherichia coli ATCC 25922), Pseudomonas aeruginosa: ATCC 27853 (Pseudomonas aeruginosa ATCC 27853), Staphylococcus aureus: ATCC29213 (Staphylococcus aureus ATCC29213), Klebsiella pneumoniae: JCM 1662 (Klebsiella pneumoniae JCM 1662), enterobacteria (1): JCM 1232 (Enterobacter cloacae JCM 1232), enterobacteria (2): JCM 1235 (Enterobacter aerogenes JCM 1235), and Staphylococcus epidermidis: JCM 2414 (Staphylococcus epidermidis JCM 2414), were used. […] As the concentrations of the agents in ATP assay, the concentrations as described in the Tables were used.

[3] = test system: Enterobacteria (2): Enterobacter aerogenes JCM 1235; assay: Antibacterial activity, ATP assay (BacTiter-Glo); details: ATP assay concentration: peptides 10, TOB 4.0, CPFX 1.0, OX 4.0, MEPM 8.0 μg/ml
Procedure: as §2

[4] = test system: Escherichia coli ATCC 25922; assay: Antibacterial activity, ATP assay (BacTiter-Glo); details: ATP assay concentration: peptides 10, TOB 1.0, CPFX 0.015, OX 0.5, MEPM 0.1 μg/ml
Procedure: as §2

[5] = test system: Staphylococcus epidermidis JCM 2414; assay: Antibacterial activity, ATP assay (BacTiter-Glo); details: ATP assay concentration: peptides 10, TOB 1.0, CPFX 0.5, OX 0.5, MEPM 0.125 μg/ml
Procedure: as §2

[6] = test system: human vascular endothelial cells and fibroblast cells (co-culture); assay: Lumen formation with angiogenesis kit KZ-1000 (section 7); details: day 11
Procedure: Using an angiogenesis kit available from KURABO […] LTD. (Product No.: KZ-1000), lumen formation by the polypeptides was evaluated. Vascular endothelial growth factor A (VEGF-A) as a positive control, and polypeptide-free, unstimulated group as a negative control, were used.
Using a special medium for angiogenesis which was attached to the kit, each polypeptide was prepared such that the concentration thereof was respectively 0.5, 2.5 and 10 μg/mL. To a 24-well plate in which cells were plated (the cells were those obtained by co-culturing human vascular endothelial cells and fibroblast cells at an optimum concentration) which was attached to the kit, the special medium for angiogenesis containing each polypeptide was added, and the cells were cultured at 37° C. under 5% CO2. The medium was replaced with a medium containing the same additive on day 4, day 7 and day 9 of culture. On day 11 from the beginning of the culture, staining was performed using a kit for staining lumina (for CD31 antibody staining) according to the following procedure.
The media were removed, and washing was performed with Dulbecco's phosphate buffered saline (PBS(−)). Thereafter, ice-cooled 70% ethanol was added to the plate, and the cells were fixed. Each well was washed with a blocking solution (Dulbecco's phosphate buffered saline (PBS(−)) containing 1% BSA). To each well, 0.5 mL of the primary antibody for CD31 staining (mouse anti-human CD31 antibody) 4000-fold diluted with the blocking solution was added, and then the plate was incubated for 60 minutes at 37° C. After the completion of the incubation, each well was washed totally 3 times with 1 mL of the blocking solution. Then, 0.5 mL of the secondary antibody solution (goat anti-mouse IgG/alkaline phosphatase conjugate) 500-fold diluted with the blocking solution was added to each well. The plate was incubated for 60 minutes at 37° C., and thereafter each well was washed 3 times with 1 mL of distilled water. During that period, 2 tablets of BCIP/NBT were dissolved into distilled water, and the obtained solution was filtered through a filter having a pore size of […] to prepare a substrate solution. To each well, 0.5 mL of the prepared BCIP/NBT substrate solution was added, and the plate was incubated at 37° C. until the lumina turned to deep purple (typically for 5-10 minutes). After the completion of the incubation, each well was washed 3 times with 1 mL of distilled water. After washing, the washing solution was removed by aspiration, and the plate was left to stand and dry naturally. After drying, photographs of each well were taken under a microscope.
Each of the obtained images was quantified using an angiogenesis quantification software. The area and length of formed lumina observed in each visual field were measured on the basis of the scale of an angiogenesis quantification software available from KURABO […] LTD. (angiogenesis quantification software Ver 1.0), and evaluated on the basis of the ratio of the area or length of polypeptide-containing groups relative to the area or length of the negative control group.

[7] = test system: Staphylococcus aureus ATCC29213; assay: Antibacterial activity, ATP assay (BacTiter-Glo); details: 10 μg/mL, ATP assay
Procedure: as §1

[8] = VEGF-A positive control, concentration not given

## O=C(O)c1cn(C2CC2)c2cc(N3CCNCC3)c(F)cc2c1=O [CPFX, ciprofloxacin, reference compound]
[1]
  ATP (%) mean, Pseudomonas aeruginosa: 2.3%
[2]
  ATP (%) mean, Klebsiella pneumoniae: 8.2%
[3]
  ATP (%) mean, Enterobacteria (2): 3.2%
[4]
  ATP (%) mean, Escherichia coli: 15.4%
[5]
  ATP (%) mean, Staphylococcus epidermidis: 7.3%

## CSCC[C@H](N)C(=O)N[C@@H](CCCNC(=N)N)C(=O)N[C@@H](CCCCN)C(=O)N[C@@H](CCCNC(=N)N)C(=O)N[C@@H](CC(C)C)C(=O)N[C@@H](CCCCN)C(=O)N[C@@H](CCCNC(=N)N)C(=O)N[C@@H](CCCCN)C(=O)N[C@@H](CC(C)C)C(=O)N[C@@H](CCCNC(=N)N)C(=O)N[C@@H](CC(C)C)C(=O)N[C@@H](Cc1c[nH]c2ccccc12)C(=O)N[C@@H](Cc1c[nH]cn1)C(=O)N[C@@H](CCCNC(=N)N)C(=O)N[C@@H](CCCCN)C(=O)N[C@@H](CCCNC(=N)N)C(=O)N[C@@H](Cc1ccc(O)cc1)C(=O)N[C@@H](CCCCN)C(N)=O [SR-6] (H-MRKRLKRKLRLWHRKRYK-NH2; N-terminus assumed)
[6]; polypeptide 0.5 μg/mL
  The Area of Lumina (relative value, negative control as 100): 97.3
  The Length of Lumina (relative value, negative control as 100): 98.4
[6]; polypeptide 10 μg/mL
  The Area of Lumina (relative value, negative control as 100): 98.6
  The Length of Lumina (relative value, negative control as 100): 96.6
[7]
  antibacterial activity against Staphylococcus aureus compared with AG30-5C: higher antibacterial activity against Staphylococcus aureus than AG30-5C

## Vascular endothelial growth factor A [VEGF-A]
[6]; [8]
  The Area of Lumina (relative value, negative control as 100): 189.2
  The Length of Lumina (relative value, negative control as 100): 169.8
